Source: patent US20230075856A1, “CYCLIC SULFAMIDE COMPOUNDS FOR TREATMENT OF HBV” (Assembly Biosciences, Inc., priority 2018, published 2023)

Tested on: HBV viral load production from HepAD38 cells
Assay: Viral production from HepAD38 cells: viral load in supernatant by qPCR of the HBV core sequence
Type: cell-based
Conditions: 5 days incubation, qPCR of supernatant HBV DNA vs DMSO control, read-out: viral load lowering EC50 (Activity)
In short: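 Viral load was measured by qPCR of the HBV core region in supernatant, quantified against DNA standards and compared with DMSO wells. Cells (50,000/well, tetracycline withdrawn, 2% FBS) received compound from 10 μM final for 5 days; EC50 from four-parameter nonlinear regression.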

Row | Structure (SMILES) | EC50 [nM]
1 | CN1C(C(=O)Nc2ccc(F)c(Cl)c2)CC(C(=O)NC2CCN(c3ccnc(Br)c3)CC2)NS1(=O)=O (single isomer, unassigned) [1036-ISOMER-B, N5-[1-(2-bromo-4-pyridyl)-4-piperidyl]-N3-(3-chloro-4-fluoro-phenyl)-2-methyl-1,1-dioxo-1,2,6-thiadiazinane-3,5-dicarboxamide] | 100 to 10000
2 | CN1C(C(=O)Nc2ccc(F)c(Cl)c2)CC(C(=O)NCc2cnc(-c3ccc(OCCCN4CCSCC4)cc3)s2)NS1(=O)=O (single isomer, unassigned) [Compound 925-ISOMER-B, N3-(3-chloro-4-fluoro-phenyl)-2-methyl-1,1-dioxo-N5-[[2-[4-(3-thiomorpholinopropoxy)phenyl]thiazol-5-yl]methyl]-1,2,6-thiadiazinane-3,5-dicarboxamide] | 100 to 10000
3 | Cc1nc(-c2ccccc2Cl)sc1CNC(=O)C1CC(C(=O)Nc2ccc(F)c(Cl)c2)N(C)S(=O)(=O)N1 (single isomer, unassigned) [1015-ISOMER-B, N3-(3-Chloro-4-fluoro-phenyl)-N5-[[2-(2-chlorophenyl)-4-methyl-thiazol-5-yl]methyl]-2-methyl-1,1-dioxo-1,2,6-thiadiazinane-3,5-dicarboxamide] | 50 to 100
4 | Cc1cccc(CNC(=O)C2CC(C(=O)Nc3ccc(F)c(Cl)c3)N(C)S(=O)(=O)N2)n1 (single isomer, unassigned; isomer-b) [Compound 716-ISOMER-B, N3-(3-chloro-4-fluoro-phenyl)-2-methyl-N5-[(6-methyl-2-pyridyl)methyl]-1,1-dioxo-1,2,6-thiadiazinane-3,5-dicarboxamde] | 100 to 10000
5 | CN1C(C(=O)Nc2ccc(F)c(Cl)c2)CC(C(=O)NC(c2ccccc2)c2ccccc2)NS1(=O)=O (single isomer, unassigned) [1014-ISOMER-B, N5-benzhydryl-N3-(3-Chloro-4-fluoro-phenyl)-2-methyl-1,1-dioxo-1,2,6-thiadiazinane-3,5-dicarboxamide] | 100 to 10000
6 | CN(C)CCCCc1cnn(-c2ncc(CNC(=O)C3CC(C(=O)Nc4ccc(F)c(Cl)c4)N(C)S(=O)(=O)N3)s2)c1 (single isomer, unassigned) [1197-ISOMER-B, N3-(3-chloro-4-fluoro-phenyl)-N5-[[2-[4-[4-(dimethylamino)butyl]pyrazol-1-yl]thiazol-5-yl]methyl]-2-methyl-1,1-dioxo-1,2,6-thiadiazinane-3,5-dicarboxamide] | 50 to 100
7 | CCN1CCC(Oc2ccc(-c3ncc(CNC(=O)C4CC(C(=O)Nc5ccc(F)c(Cl)c5)N(C)S(=O)(=O)N4)s3)cc2)CC1 (single isomer, unassigned) [Compound 921-ISOMER-B, N3-(3-chloro-4-fluoro-phenyl)-N5-[[2-[4-[(1-ethyl-4-piperidyl)oxy]phenyl]thiazol-5-yl]methyl]-2-methyl-1,1-dioxo-1,2,6-thiadiazinane-3,5-dicarboxamide] | 50 to 100

Same assay, conditions: Hepatitis B virus, HePAD38, 120 h, 5 days incubation, qPCR of supernatant HBV DNA vs DMSO control, read-out: viral load lowering EC50 (Activity)

Row | Structure (SMILES) | EC50 [nM]
8 | CN1C(C(=O)Nc2ccc(F)c(Cl)c2)CC(C(=O)NCc2cnc(-c3ccc(OCCCN4CCCCC4)cc3)s2)NS1(=O)=O (stereo not drawn) [Compound 942] | 50 to 100
9 | Cc1cc(CNC(=O)C2CC(C(=O)Nc3ccc(F)c(C#N)c3)N(C)S(=O)(=O)N2)n(C)n1 (stereo not drawn) [Compound 773] | 100 to 10000
10 | CN1C(C(=O)Nc2ccc(F)c(Cl)c2)CC(C(=O)NCc2cnc(-n3cccn3)s2)NS1(=O)=O (stereo not drawn) [Compound 1157] | 50 to 100
11 | CN1C(C(=O)Nc2ccc(F)c(Cl)c2)CC(C(=O)NCc2cnc(-c3cccc(Cl)c3)s2)NS1(=O)=O (stereo not drawn) [Compound 913] | 50 to 100
12 | CN1C(C(=O)Nc2ccc(F)c(Cl)c2)CC(C(=O)NCc2cccc(Cl)c2)NS1(=O)=O (single isomer, unassigned) [Compound 730-ISOMER-A, N3-(3-chloro-4-fluoro-phenyl)-N5-[(3-chlorophenyl)methyl]-2-methyl-1,1-dioxo-1,2,6-thiadiazinane-3,5-dicarboxamide] | < 50
13 | CN1C(C(=O)Nc2ccc(F)c(Cl)c2)CC(C(=O)NC(c2ccccc2)c2cnc(-c3ccccc3Cl)s2)NS1(=O)=O (stereo not drawn) [Compound 1068] | 50 to 100
14 | COc1cccc(CNC(=O)C2CC(C(=O)Nc3ccc(F)c(Cl)c3)N(C)S(=O)(=O)N2)c1 (stereo not drawn) [Compound 721] | < 50
15 | CN1C(C(=O)Nc2ccc(F)c(Cl)c2)CC(C(=O)NCC2CCN(c3ccccn3)CC2)NS1(=O)=O (stereo not drawn) [Compound 961] | 100 to 10000
16 | CN1C(C(=O)Nc2ccc(F)c(Cl)c2)CC(C(=O)NCc2cnc(-c3ccc(O)cc3Cl)s2)NS1(=O)=O (stereo not drawn) [Compound 1028] | < 50
17 | CN1C(C(=O)Nc2ccc(F)c(Cl)c2)CC(C(=O)N[C@@H](c2ccccc2)c2cnc(-c3ccc(Cl)cc3)s2)NS1(=O)=O (single isomer, unassigned) [1068-ISOMER-D] | 100 to 10000
18 | CN1C(C(=O)Nc2ccc(F)c(Cl)c2)CC(C(=O)NCc2nc3ccccc3s2)NS1(=O)=O (stereo not drawn) [Compound 689] | < 50
19 | CN1C(C(=O)Nc2ccc(F)c(Cl)c2)CC(C(=O)NCc2cnccn2)NS1(=O)=O (stereo not drawn) [Compound 704] | 100 to 10000
20 | CN1C(C(=O)Nc2ccc(F)c(Cl)c2)CC(C(=O)NCc2nc3ccc(O)cc3s2)NS1(=O)=O (stereo not drawn) [Compound 1010] | < 50
21 | CN1C(C(=O)Nc2ccc(F)c(Cl)c2)CC(C(=O)NCc2ncc(-c3ccccc3)s2)NS1(=O)=O (single isomer, unassigned) [Compound 931-ISOMER-A, N3-(3-chloro-4-fluoro-phenyl)-2-methyl-1,1-dioxo-N5-[(5-phenylthiazol-2-yl)methyl]-1,2,6-thiadiazinane-3,5-dicarboxamide] | 100 to 10000
22 | C[C@@H](NC(=O)C1CC(C(=O)Nc2ccc(F)c(Cl)c2)N(C)S(=O)(=O)N1)c1ccccc1 (stereo partly drawn) [Compound 719] | < 50
23 | CN1C(C(=O)Nc2ccc(F)c(Cl)c2)CC(C(=O)NC2CCCCC2)NS1(=O)=O (stereo not drawn) [Compound 728] | 100 to 10000

Row | Structure (SMILES) | EC50 [nM]
24 | CN1C(C(=O)Nc2ccc(F)c(Cl)c2)CC(C(=O)NC2CCN(c3ccnc(-c4cn(C)cn4)c3)CC2)NS1(=O)=O (stereo not drawn) [Compound 1052] | < 50
25 | COC(=O)N1CCC(NC(=O)C2CC(C(=O)Nc3ccc(F)c(Cl)c3)N(C)S(=O)(=O)N2)CC1 (single isomer, unassigned) [Compound 477-ISOMER-A, methyl 4-[[5-[(3-chloro-4-fluoro-phenyl)carbamoyl]-6-methyl-1,1-dioxo-1,2,6-thiadiazinane-3-carbonyl]amino]piperidine-1-carboxylate] | < 50
26 | CN1C(C(=O)Nc2ccc(F)c(Cl)c2)CC(C(=O)NCc2cnc(-c3ccccn3)s2)NS1(=O)=O (stereo not drawn) [Compound 1162] | < 50
27 | CN1C(C(=O)Nc2ccc(F)c(Cl)c2)CC(C(=O)NC(c2ccccc2)c2cnc(-c3ccccc3)s2)NS1(=O)=O (stereo not drawn) [Compound 1067] | < 50
28 | CN1C(C(=O)Nc2ccc(F)c(Cl)c2)C[C@@H](C(=O)N[C@H](c2ccccc2)c2cnc(-c3ccccc3)s2)NS1(=O)=O (single isomer, unassigned) [1067-ISOMER-C] | < 50
29 | Cc1ncc(CNC(=O)C2CC(C(=O)Nc3ccc(F)c(Cl)c3)N(C)S(=O)(=O)N2)s1 (single isomer, unassigned) [Compound 495-ISOMER-B, N3-(3-chloro-4-fluoro-phenyl)-2-methyl-N5-[(2-methylthiazol-5-yl)methyl]-1,1-dioxo-1,2,6-thiadiazinane-3,5-dicarboxamide] | < 50
30 | COc1ccc2nc(CNC(=O)C3CC(C(=O)Nc4ccc(F)c(Cl)c4)N(C)S(=O)(=O)N3)sc2c1 (stereo not drawn) [Compound 1011] | < 50
31 | CN1C(C(=O)Nc2ccc(F)c(Cl)c2)CC(C(=O)NCc2ccccn2)NS1(=O)=O (stereo not drawn) [Compound 739] | 50 to 100
32 | Cc1nc(-c2ccc(OCCN3CCCCC3)cc2)sc1CNC(=O)C1CC(C(=O)Nc2ccc(F)c(Cl)c2)N(C)S(=O)(=O)N1 (single isomer, unassigned) [1087-ISOMER-A, N3-(3-chloro-4-fluoro-phenyl)-2-methyl-N5-[[4-methyl-2-[4-[2-(1-piperidyl)ethoxy]phenyl]thiazol-5-yl]methyl]-1,1-dioxo-1,2,6-thiadiazinane-3,5-dicarboxamide] | < 50
33 | CN1C(C(=O)Nc2ccc(F)c(Cl)c2)CC(C(=O)NC(c2ccccc2)c2cnc(-c3ccccc3Cl)s2)NS1(=O)=O (single isomer, unassigned) [1068-ISOMER-A, N3-(3-chloro-4-fluoro-phenyl)-N5-[[2-(2-chlorophenyl)thiazol-5-yl]-phenyl-methyl]-2-methyl-1,1-dioxo-1,2,6-thiadiazinane-3,5-dicarboxamide] | < 50
34 | COc1ccccc1-c1ncc(CNC(=O)C2CC(C(=O)Nc3ccc(F)c(Cl)c3)N(C)S(=O)(=O)N2)s1 (single isomer, unassigned) [Compound 987-ISOMER-A, N3-(3-chloro-4-fluoro-phenyl)-N5-[[2-(2-methoxyphenyl)thiazol-5-yl]methyl]-2-methyl-1,1-dioxo-1,2,6-thiadiazinane-3,5-dicarboxamide] | < 50
35 | CN1C(C(=O)Nc2ccc(F)c(Cl)c2)CC(C(=O)NC2CCOC2)NS1(=O)=O (stereo not drawn) [Compound 706] | 100 to 10000
36 | CN1C(C(=O)Nc2ccc(F)c(C#N)c2)CC(C(=O)NCc2cccc(Cl)c2)NS1(=O)=O (stereo not drawn) [Compound 837] | < 50
37 | CN1C(C(=O)Nc2ccc(F)c(Cl)c2)CC(C(=O)N[C@@H](c2ccccc2)c2cnc(-c3ccccc3)s2)NS1(=O)=O (single isomer, unassigned) [1067-ISOMER-B] | 100 to 10000
38 | Cc1ccccc1CNC(=O)C1CC(C(=O)Nc2ccc(F)c(Cl)c2)N(C)S(=O)(=O)N1 (stereo not drawn) [Compound 817] | < 50
39 | CCn1nccc1CNC(=O)C1CC(C(=O)Nc2ccc(F)c(Cl)c2)N(C)S(=O)(=O)N1 (stereo not drawn) [Compound 744] | 50 to 100
